{"source": "ChEMBL document CHEMBL1137379", "about": "“9-{[3-fluoro-2-(hydroxymethyl)cyclopropylidene]methyl}adenines and -guanines. Synthesis and antiviral activity of all stereoisomers1” (J Med Chem, 2006)", "key": {"[1]": {"molecular_target": "T1, Adenosine deaminase (Bos taurus) (UniProt P56658)", "T1 sequence (whole entry)": "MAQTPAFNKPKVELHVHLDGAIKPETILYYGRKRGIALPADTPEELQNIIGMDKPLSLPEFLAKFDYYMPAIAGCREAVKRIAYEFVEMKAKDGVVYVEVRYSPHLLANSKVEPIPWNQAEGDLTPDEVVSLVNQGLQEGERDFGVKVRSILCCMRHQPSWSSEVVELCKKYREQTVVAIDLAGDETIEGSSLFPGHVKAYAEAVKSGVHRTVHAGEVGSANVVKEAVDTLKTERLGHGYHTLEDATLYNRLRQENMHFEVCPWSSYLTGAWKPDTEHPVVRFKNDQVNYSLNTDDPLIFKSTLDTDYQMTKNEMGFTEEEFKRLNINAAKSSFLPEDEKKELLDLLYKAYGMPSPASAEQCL", "assay": "Activity at calf intestine ADA by adenosine deaminase assay after 24 hrs"}, "[2]": {"molecular_target": "T1, Adenosine deaminase (Bos taurus)", "assay": "Activity at calf intestine ADA by adenosine deaminase assay after 48 hrs"}, "[3]": {"test_system": "KB", "assay": "Cytotoxicity against KB cells", "assay_type": "functional", "details": "Homo sapiens"}, "[4]": {"test_system": "Human gammaherpesvirus 4", "assay": "Inhibition of EBV replication in Daudi cells by viral capsid antigen-ELISA", "assay_type": "functional, organism-based", "details": "human gammaherpesvirus 4, Daudi"}, "[5]": {"test_system": "Daudi", "assay": "Cytotoxicity against Daudi cells", "assay_type": "functional", "details": "Homo sapiens"}, "[6]": {"test_system": "Human alphaherpesvirus 1", "assay": "Inhibition of HSV1 replication in BSC1 cells by ELISA", "assay_type": "functional, organism-based", "details": "Human alphaherpesvirus 1, BSC-1"}, "[7]": {"test_system": "HFF", "assay": "Cytotoxicity against HFF cell by neutral red uptake assay", "assay_type": "functional", "details": "Homo sapiens"}, "[8]": {"test_system": "Human betaherpesvirus 5", "assay": "Inhibition of HCMV AD169 replication in HFF cells by cytopathic effect assay", "assay_type": "functional, organism-based", "details": "Human betaherpesvirus 5, AD169, HFF"}, "[9]": {"test_system": "Human betaherpesvirus 5", "assay": "Inhibition of HCMV towne replication in HFF cells by plaque reduction assay", "assay_type": "functional, organism-based", "details": "Human betaherpesvirus 5, Towne"}, "[10]": {"test_system": "Human gammaherpesvirus 4", "assay": "Inhibition of EBV replication in H1 cells by DNA hybridization assay", "assay_type": "functional, organism-based", "details": "human gammaherpesvirus 4, H1"}, "[11]": {"test_system": "HepG2", "assay": "Cytotoxicity against 2.2.15 cells", "assay_type": "functional", "details": "Homo sapiens"}, "[12]": {"test_system": "Hepatitis B virus", "assay": "Inhibition of HBV replication in 2.2.15 cells by DNA hybridization assay", "assay_type": "functional, organism-based", "details": "HepG2 2.2.15"}, "[13]": {"test_system": "MT2", "assay": "Cytotoxicity against MT2 cells", "assay_type": "functional", "details": "Homo sapiens"}, "[14]": {"test_system": "Human immunodeficiency virus 1", "assay": "Inhibition of HIV1 LAI replication in MT2 cells by cytopathic effect assay", "assay_type": "functional, organism-based", "details": "Human immunodeficiency virus 1, LAI"}}, "note": "The source made the active and inactive calls. The rule behind the calls is not given here."}
{"smiles": "Nc1ncnc2c1ncn2/C=C1/[C@@H](CO)[C@H]1F", "note": "(relative stereo)", "values": [{"measurement": "Activity", "setting": "[1]", "result": 50, "unit": "%"}]}
{"smiles": "Nc1ncnc2c1ncn2/C=C1/[C@@H](F)[C@@H]1CO", "note": "(relative stereo)", "values": [{"measurement": "Activity", "setting": "[1]", "result": 50, "unit": "%"}]}
{"smiles": "Nc1ncnc2c1ncn2/C=C1/[C@@H](F)[C@H]1CO", "note": "(relative stereo)", "values": [{"measurement": "Activity", "setting": "[1]", "result": 50, "unit": "%"}]}
{"smiles": "Nc1ncnc2c1ncn2/C=C1\\[C@H](F)[C@H]1CO", "note": "(relative stereo)", "values": [{"measurement": "Activity", "setting": "[2]", "result": "inactive"}]}
{"smiles": "Nc1nc2c(ncn2COCCO)c(=O)[nH]1", "note": "[ACYCLOVIR]", "values": [{"measurement": "CC50", "setting": "[3]", "result": "> 100000", "unit": "nM"}, {"measurement": "EC50", "setting": "[4]", "result": 330, "unit": "nM"}, {"measurement": "CC50", "setting": "[5]", "result": "> 100000", "unit": "nM"}, {"measurement": "EC50", "setting": "[6]", "result": 3500, "unit": "nM"}]}
{"smiles": "Nc1nc2c(ncn2COC(CO)CO)c(=O)[nH]1", "note": "[GANCICLOVIR]", "values": [{"measurement": "CC50", "setting": "[7]", "result": "> 100000", "unit": "nM"}, {"measurement": "EC50", "setting": "[8]", "result": 150, "unit": "nM"}, {"measurement": "EC50", "setting": "[9]", "result": 1800, "unit": "nM"}, {"measurement": "EC50", "setting": "[10]", "result": 5000, "unit": "nM"}]}
{"smiles": "Nc1ccn([C@@H]2CS[C@H](CO)O2)c(=O)n1", "note": "[LAMIVUDINE]", "values": [{"measurement": "CC50", "setting": "[11]", "result": "> 100000", "unit": "nM"}, {"measurement": "EC50", "setting": "[12]", "result": 20, "unit": "nM"}]}
{"smiles": "Cc1cn([C@H]2C[C@H](N=[N+]=[N-])[C@@H](CO)O2)c(=O)[nH]c1=O", "note": "[ZIDOVUDINE]", "values": [{"measurement": "CC50", "setting": "[13]", "result": "> 10000", "unit": "nM"}, {"measurement": "EC50", "setting": "[14]", "result": 20, "unit": "nM"}]}
